This series addresses hERG potassium channel (Homo sapiens, UniProt Q12809). Description: Whole cell patch clamp of cloned hERG potassium channels expressed in HEK293 cells. In kind it is cell-based. The note with it: for IC50: patch clamp, read-out: IC50 for the inhibitory effect on hERG potassium current. The source says: For in vitro testing, the functional hERG assay using conventional patch clamp electrophysiology is considered the gold standard for assessment of drug interactions with the hERG potassium channel (Yao et al., Br. J. Pharmacol. 2008, 154, 1446-1456). In this assay, hERG channels are expressed in a human embryonic kidney (HEK293) cell line that lacks endogenous IKr.
The objective of this study was to examine the in vitro effects of test articles on the hERG (human ether-à-go-go-related gene) potassium channel current (a surrogate for IKr, the rapidly activating delayed rectifier cardiac potassium current).
All chemicals used in solution preparation were purchased from Sigma-Aldrich (St. Louis, Mo.) unless otherwise noted and were of ACS reagent grade purity or higher. Stock solutions of the test article and the positive control were prepared in dimethyl sulfoxide (DMSO) and stored frozen. Test article and positive control concentrations were prepared fresh daily by diluting stock solutions into a HEPES-buffered physiological saline (HB-PS) solution (composition in mM): NaCl, 137; KCl, 4.0; CaCl2, 1.8; MgCl2, 1; HEPES, 10; Glucose, 10; pH adjusted to 7.4 with NaOH (prepared weekly and refrigerated until use).
HEK/hERG • Organism: Homo sapiens • Designation: 293 • Tissue: Kidney; Transformed with adenovirus 5 DNA; Transfected with human-ether-a-go-go cDNA • Morphology: Epithelial • Age Stage Embryo • Source Strain: ATCC, Manassas, Va. • Source Substrain ChanTest Corporation, Cleveland, Ohio
HEK293 cells were stably transfected with hERG cDNA. Stable transfectants were selected by coexpression with the G418-resistance gene incorporated into the expression plasmid. Selection pressure was maintained by including G418 in the culture medium. Cells were cultured in Dulbecco's Modified Eagle Medium/Nutrient Mixture F-12 (D-MEM/F-12) supplemented with 10% fetal bovine serum, 100 U/mL penicillin G sodium, 100 μg/mL streptomycin sulfate and 500 μg/mL G418.
All experiments were performed at room temperature. Each cell acted as its own control.
Experiments were performed as outlined in the section entitled Experimental Procedures. Concentrations were selected to evaluate the concentration-response relationship of each test article based on the initial results or the solubility limits in vehicle. Each concentration was tested in at least three cells (n≧3).
Cells were transferred to the recording chamber and superfused with vehicle control solution. Micropipette solution for whole cell patch clamp recordings was composed of (mM): potassium aspartate, 130; MgCl2, 5; EGTA, 5; ATP, 4; HEPES, 10; pH adjusted to 7.2 with KOH. Pipette solution was prepared in batches, aliquoted, stored frozen, and a fresh aliquot was thawed each day. Patch pipettes were made from glass capillary tubing using a P-97 micropipette puller (Sutter Instruments, Novato, Calif.). A commercial patch clamp amplifier was used for whole cell recordings. Before digitization, current records were low-pass filtered at one-fifth of the sampling frequency.
Onset and steady state inhibition of hERG current was measured using a pulse pattern with fixed amplitudes (conditioning prepulse: +20 mV for 2 s; test pulse: −50 mV for 2 s) repeated at 10 s intervals, from a holding potential of −80 mV. Peak tail current was measured during the 2 s step to −50 mV.
Each test article at 10 μM was applied to at least 3 cells (n≧3).
One or more test article concentrations were applied sequentially (without washout between test substance concentrations) in ascending order, to each cell (n≧3). A steady state was maintained for at least 30 s before applying test article or positive control. Peak current was measured until a new steady state was achieved.
Steady state was defined by the limiting constant rate of change with time (linear time dependence). The steady state before and after test article application was used to calculate the percentage of current inhibited at each concentration. […]
For orientation: Patch clamp records ionic current or voltage across a cell membrane.

The mark [1] stands for this setting: human, HEK293 cells stably expressing hERG, pH 7.4, HEK293/hERG, room temperature, read-out: Mean percentage of hERG current inhibited.

Molecules are shown by their SMILES.

hERG potassium channel, sequence (Q12809 whole entry): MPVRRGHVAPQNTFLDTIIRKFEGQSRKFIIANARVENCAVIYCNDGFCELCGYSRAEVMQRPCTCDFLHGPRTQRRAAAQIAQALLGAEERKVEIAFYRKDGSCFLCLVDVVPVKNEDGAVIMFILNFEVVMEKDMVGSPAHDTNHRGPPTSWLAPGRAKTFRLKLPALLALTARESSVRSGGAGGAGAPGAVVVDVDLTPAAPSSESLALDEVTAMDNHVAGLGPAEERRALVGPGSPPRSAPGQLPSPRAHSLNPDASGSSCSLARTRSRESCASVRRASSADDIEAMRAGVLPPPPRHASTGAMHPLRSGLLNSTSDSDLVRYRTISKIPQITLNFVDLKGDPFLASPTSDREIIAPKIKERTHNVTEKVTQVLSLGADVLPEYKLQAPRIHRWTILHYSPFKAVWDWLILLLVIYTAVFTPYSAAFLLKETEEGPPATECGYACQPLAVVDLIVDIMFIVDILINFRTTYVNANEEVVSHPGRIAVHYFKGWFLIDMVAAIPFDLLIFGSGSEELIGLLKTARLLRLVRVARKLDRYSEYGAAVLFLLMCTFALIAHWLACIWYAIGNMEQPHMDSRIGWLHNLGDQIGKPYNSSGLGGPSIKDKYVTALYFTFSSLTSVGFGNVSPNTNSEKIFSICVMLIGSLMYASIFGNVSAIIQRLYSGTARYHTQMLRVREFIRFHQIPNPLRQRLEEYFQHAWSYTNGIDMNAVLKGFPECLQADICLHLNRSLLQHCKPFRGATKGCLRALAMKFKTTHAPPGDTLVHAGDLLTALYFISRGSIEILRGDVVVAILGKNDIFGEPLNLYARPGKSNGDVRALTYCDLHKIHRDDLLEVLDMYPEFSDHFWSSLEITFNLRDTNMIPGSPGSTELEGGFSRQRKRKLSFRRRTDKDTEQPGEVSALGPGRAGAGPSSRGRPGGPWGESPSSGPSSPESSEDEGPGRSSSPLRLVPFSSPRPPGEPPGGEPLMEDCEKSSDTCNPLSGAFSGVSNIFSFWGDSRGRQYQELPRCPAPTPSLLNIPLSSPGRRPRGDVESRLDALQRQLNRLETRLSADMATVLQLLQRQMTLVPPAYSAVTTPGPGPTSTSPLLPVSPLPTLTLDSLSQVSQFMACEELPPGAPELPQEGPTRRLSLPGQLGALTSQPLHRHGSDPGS

In the case of `CC(C)(C)NCc1cc(C(C)(C)C)cc(-c2ccc(C(F)(F)F)nc2)c1O.Cl` [Example 1, 4-(tert-Butyl)-2-((tert-butylamino)methyl)-6-(6-(trifluoromethyl)pyridin-3-yl)phenol hydrochloride], the IC50 (HEK293/hERG) came out at 9.8 µM. In addition, the “Hill coefficient of hERG inhibition” value (fit of concentration-response data) amounted to 1.4. Moreover, under setting [1], the inhibition at 3 µM came out at 18.4%, the inhibition at 10 µM was 48.5% and the inhibition at 30 µM is 84%. The inhibition at 100 µM (human, HEK293 cells stably expressing hERG, pH 7.4, 100 μM, HEK293/hERG, room temperature, read-out: Mean percentage of hERG current inhibited) stood at 98.2%.
Take `CC(C)(C)NCc1cc(C(C)(C)C)cc(-c2cnc(C(F)(F)F)nc2)c1O.Cl` [Example 33, 4-(tert-Butyl)-2-((tert-butylamino)methyl)-6-(2-(trifluoromethyl)pyrimidin-5-yl)phenol hydrochloride]: the IC50 (HEK293/hERG) is greater than 10 µM. Besides, under setting [1], the inhibition at 3 µM was determined as 4.1%, the inhibition at 10 µM came out at 12.9% and the inhibition at 30 µM turned out to be 24.3%.
`CC(C)(C)NCc1cc(C(C)(C)C)cc(-c2cnc(C(F)(F)F)c(F)c2)c1O.Cl` [Example 34, 4-(tert-Butyl)-2-((tert-butylamino)methyl)-6-(5-fluoro-6-(trifluoromethyl)pyridin-3-yl)phenol hydrochloride]: the IC50 (HEK293/hERG) was greater than 10 µM. Also, under “human, HEK293 cells stably expressing hERG, pH 7.4, 1 μM, HEK293/hERG, room temperature, read-out: Mean percentage of hERG current inhibited”, the inhibition at 1 µM was 2.6%. For the same compound, under setting [1], the inhibition at 3 µM was 11.3% and the inhibition at 10 µM is 15.9%.

The IC50 is the midpoint of a concentration-inhibition curve.

These data come from patent publication US9409893B2, “Heteroaryl derivatives and uses thereof” (Jacobus Pharmaceutical Company, Inc., priority 2012, dated 2016).
